The target of one assay is E. coli PBP3 (Escherichia coli (strain K12), UniProt P0AD68). The experiment in a line: E. coli PBP3 Bocillin-FL fluorescence polarization competition binding assay. The essentials: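 Purified E. coli PBP (1.5 μM final) competed with inhibitor (0-1000 μM) for Bocillin-FL (0.1 μM final) in 50 mM Hepes pH 8.0, 300 mM NaCl, 5% glycerol. Fluorescence polarization (ex 490/em 520 nm) was read continuously for 60 min after Bocillin-FL addition. EC50 was the concentration that reduced Bocillin-FL binding by 50%.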
For orientation: Polarisation of emitted light reports the rotation of a fluorescent probe.

For another assay, the target named is E. coli PBP2 (Escherichia coli (strain K12), UniProt P0AD65). The experiment in a line: E. coli PBP2 Bocillin-FL fluorescence polarization competition binding assay. The essentials: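 Fluorescence polarization competition with Bocillin-FL (0.1 μM final) and purified PBP2 (1.5 μM final) in 50 mM Hepes pH 8.0, 300 mM NaCl, 5% glycerol. FP (ex 490/em 520 nm) read for 90 min after Bocillin-FL addition; EC50 is the inhibitor concentration reducing Bocillin-FL binding by half.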

For another assay, the target named is E. coli PBP4 (Escherichia coli (strain K12), UniProt P24228). Nature of the assay: E. coli PBP4 Bocillin-FL fluorescence polarization competition binding assay. The text has this:
To determine the ability of boronic acid-based test PBP inhibitors to bind Penicillin Binding Proteins (PBPs), Bocillin-FL (fluorescently-labeled penicillin V; ThermoFisher Scientific) was used in a fluorescence polarization (FP) competition binding assay to assess inhibitor binding to PBP2, PBP3 or PBP4 from Escherichia coli. PBPs were cloned and purified as described previously (King, D. T, et al., ACS Infectious Diseases 2015, 1, 175-184). To establish assay conditions for competition binding, an enzyme titration/saturation binding experiment was initially performed. Bocillin-FL was prepared at 0.2 μM in a buffer comprised of 50 mM Hepes (pH 8.0), 300 mM NaCl and 5% (v/v) glycerol. Saturation binding was performed by mixing 40 μl of PBP solutions ranging in concentrations from 0-12 μM with 40 μl of the 0.2 μM Bocillin-FL solution, in individual wells of a black 384-well microplate. FP was measured immediately upon mixing (Excitation, 490 nm; Emission, 520 nm; g-factor, 0.96), using a Cytation3 (BioTek) microplate reader and measured continuously for up to 120 minutes. […] Assays (80 μl final volume) were performed with PBPs at a final concentration of 1.5 μM, Bocillin-FL at 0.1 μM and beta-lactam concentrations that ranged from 0-1000 μM. […] Bocillin-FL was added and the FP immediately measured for 60 minutes (90 minutes for PBP2). The beta-lactam potency was reported as the concentration of beta-lactam required to reduce binding of Bocillin-FL by […] (EC50). […] Binding assays for boronic acid PBP inhibitors were performed in an identical fashion.

The target of another assay is E. coli PBP1a (Escherichia coli (strain K12), UniProt P02918). The experiment in a line: Radioligand competition binding assay with 14C-labeled boronic acid probe, PBP1a. The essentials: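 Purified E. coli PBP1a (0.1 μM) preincubated 60 min with test boronic acid inhibitor in 20 mM Tris pH 7.5, 500 mM NaCl, 0.1% Triton X-100, then 60 min with 20 μM ^14C-labeled boronic acid probe. Bound probe recovered by spin desalting and counted by scintillation; EC50 reported.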
A general note: Displacement assays read how much labelled ligand stays bound in the presence of the test substance.

In assay [1] the test system is engineered strain of Escherichia coli harboring CTX-M15. Nature of the assay: microbe, parasite or virus in culture. Conditions: Escherichia coli, read-out: Microbiological Activity (MIC in mg/L), E. coli DH5α/pLBII-CTX-M15, engineered strain producing CTX-M15. Type of assay: cell-based.
The subject of assay [2] is E. coli DH5α empty pLBII vector control strain. Nature of the assay: microbe, parasite or virus in culture. The assay is classed as cell-based, Escherichia coli. Conditions: Escherichia coli, read-out: Microbiological Activity (MIC in mg/L), E. coli DH5α/pLBII. In a few lines:
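Broth microdilution in cation-supplemented Mueller-Hinton broth used a starting inoculum of 5×10^5 CFU/mL of E. coli DH5α carrying empty pLBII vector. Plates were incubated 16–20 h at 37 °C. MIC was read visually as the lowest concentration showing no growth.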

The test system of the next assay is E. coli ATCC 25922. Nature of the assay: Broth microdilution MIC, E. coli ATCC 25922. Type of assay: cell-based. Conditions: Escherichia coli, ATCC25922; E. coli ATCC 25922, broth microdilution; read-out: MIC E. coli 25922. The essentials: (§1)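 Broth microdilution MICs followed CLSI methods in cation-supplemented Mueller-Hinton broth, with 2-fold serial compound dilutions. Log-phase cultures grown 3–5 h were added to a starting inoculum of 5×10^5 CFU/mL and incubated 16–20 h at 37 °C. The MIC was read visually as the lowest concentration with no growth.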

The test system of another assay is E. coli AG100. Nature of the assay: Broth microdilution MIC, E. coli AG100 (wild-type parent). The assay is classed as cell-based. Conditions: Escherichia coli; wild-type parent E. coli AG100, broth microdilution; read-out: MIC E. coli AG100. In a few lines:
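Broth microdilution in cation-supplemented Mueller-Hinton broth, 2-fold serial compound dilutions, inoculum 5×10^5 CFU/mL from 3-5 h log culture.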

Another assay has as its system E. coli 901C. Nature of the assay: microbe, parasite or virus in culture. Type of assay: cell-based. The note with it: Escherichia coli; hyper-permeable E. coli 901C, broth microdilution; read-out: MIC E. coli 901C. In a few lines:
as §1
For orientation: In broth dilution the organism is exposed to a series of concentrations in liquid medium.

A further assay has as its system E. coli AG100A. Nature of the assay: microbe, parasite or virus in culture. The assay is classed as cell-based. Conditions: Escherichia coli, read-out: MIC E. coli AG100A. In a few lines: as §1
Another assay relates to K. pneumoniae UMM. Nature of the assay: microbe, parasite or virus in culture. The assay is classed as cell-based. The note with it: Klebsiella pneumoniae; K. pneumoniae UMM producing SHV-5 and KPC-2; read-out: MIC K. pneumoniae UMM. The essentials:
as §1

Converted amounts (≈) assume the structure as drawn. Read-outs that look alike come from different tables or passages of the source.

Chain of E. coli PBP4 (P24228 21-477): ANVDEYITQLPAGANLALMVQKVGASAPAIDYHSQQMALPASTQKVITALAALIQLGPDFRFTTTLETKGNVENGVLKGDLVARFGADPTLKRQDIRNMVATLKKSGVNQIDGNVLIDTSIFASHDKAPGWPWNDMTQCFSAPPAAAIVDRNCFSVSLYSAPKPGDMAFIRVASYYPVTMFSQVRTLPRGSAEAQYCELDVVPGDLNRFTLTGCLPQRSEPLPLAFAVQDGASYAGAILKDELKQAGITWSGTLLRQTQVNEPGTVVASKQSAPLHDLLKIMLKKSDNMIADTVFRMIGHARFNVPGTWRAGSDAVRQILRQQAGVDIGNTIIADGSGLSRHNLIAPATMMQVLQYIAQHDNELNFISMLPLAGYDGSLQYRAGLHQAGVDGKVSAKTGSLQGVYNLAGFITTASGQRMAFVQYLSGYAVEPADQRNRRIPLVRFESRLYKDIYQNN
Chain of E. coli PBP2 (P0AD65 whole entry): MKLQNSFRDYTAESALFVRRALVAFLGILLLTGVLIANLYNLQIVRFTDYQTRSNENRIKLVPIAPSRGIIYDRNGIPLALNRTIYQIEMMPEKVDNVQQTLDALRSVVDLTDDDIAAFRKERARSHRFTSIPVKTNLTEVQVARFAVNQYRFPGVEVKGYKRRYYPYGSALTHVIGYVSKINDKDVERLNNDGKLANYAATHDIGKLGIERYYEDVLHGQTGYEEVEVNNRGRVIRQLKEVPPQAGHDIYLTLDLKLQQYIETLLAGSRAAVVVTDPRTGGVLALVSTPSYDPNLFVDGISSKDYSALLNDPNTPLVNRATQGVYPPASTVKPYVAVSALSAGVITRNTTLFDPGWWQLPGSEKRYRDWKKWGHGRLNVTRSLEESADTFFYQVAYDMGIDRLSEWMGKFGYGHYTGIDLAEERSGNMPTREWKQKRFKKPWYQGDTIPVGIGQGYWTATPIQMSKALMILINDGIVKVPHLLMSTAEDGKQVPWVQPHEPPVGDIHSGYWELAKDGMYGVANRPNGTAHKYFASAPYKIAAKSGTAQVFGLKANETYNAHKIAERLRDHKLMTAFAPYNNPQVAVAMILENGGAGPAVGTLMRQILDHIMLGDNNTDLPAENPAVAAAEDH
Chain of E. coli PBP3 (P0AD68 whole entry): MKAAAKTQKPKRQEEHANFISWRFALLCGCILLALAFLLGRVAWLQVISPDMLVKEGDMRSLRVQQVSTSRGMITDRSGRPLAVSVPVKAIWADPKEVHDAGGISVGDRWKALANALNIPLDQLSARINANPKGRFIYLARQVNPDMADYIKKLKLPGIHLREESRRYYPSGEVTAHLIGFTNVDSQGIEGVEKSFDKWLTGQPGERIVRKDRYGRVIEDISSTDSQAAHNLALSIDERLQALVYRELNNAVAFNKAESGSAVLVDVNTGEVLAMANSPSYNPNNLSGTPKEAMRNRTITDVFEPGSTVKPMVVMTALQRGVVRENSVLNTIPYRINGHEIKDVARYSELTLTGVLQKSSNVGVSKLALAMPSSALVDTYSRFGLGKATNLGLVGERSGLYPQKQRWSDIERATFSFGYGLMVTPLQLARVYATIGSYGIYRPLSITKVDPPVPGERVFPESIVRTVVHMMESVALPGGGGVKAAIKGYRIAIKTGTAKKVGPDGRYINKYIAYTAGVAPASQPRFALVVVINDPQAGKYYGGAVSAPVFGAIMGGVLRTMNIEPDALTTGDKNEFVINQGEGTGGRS
Chain of E. coli PBP1a (P02918 whole entry): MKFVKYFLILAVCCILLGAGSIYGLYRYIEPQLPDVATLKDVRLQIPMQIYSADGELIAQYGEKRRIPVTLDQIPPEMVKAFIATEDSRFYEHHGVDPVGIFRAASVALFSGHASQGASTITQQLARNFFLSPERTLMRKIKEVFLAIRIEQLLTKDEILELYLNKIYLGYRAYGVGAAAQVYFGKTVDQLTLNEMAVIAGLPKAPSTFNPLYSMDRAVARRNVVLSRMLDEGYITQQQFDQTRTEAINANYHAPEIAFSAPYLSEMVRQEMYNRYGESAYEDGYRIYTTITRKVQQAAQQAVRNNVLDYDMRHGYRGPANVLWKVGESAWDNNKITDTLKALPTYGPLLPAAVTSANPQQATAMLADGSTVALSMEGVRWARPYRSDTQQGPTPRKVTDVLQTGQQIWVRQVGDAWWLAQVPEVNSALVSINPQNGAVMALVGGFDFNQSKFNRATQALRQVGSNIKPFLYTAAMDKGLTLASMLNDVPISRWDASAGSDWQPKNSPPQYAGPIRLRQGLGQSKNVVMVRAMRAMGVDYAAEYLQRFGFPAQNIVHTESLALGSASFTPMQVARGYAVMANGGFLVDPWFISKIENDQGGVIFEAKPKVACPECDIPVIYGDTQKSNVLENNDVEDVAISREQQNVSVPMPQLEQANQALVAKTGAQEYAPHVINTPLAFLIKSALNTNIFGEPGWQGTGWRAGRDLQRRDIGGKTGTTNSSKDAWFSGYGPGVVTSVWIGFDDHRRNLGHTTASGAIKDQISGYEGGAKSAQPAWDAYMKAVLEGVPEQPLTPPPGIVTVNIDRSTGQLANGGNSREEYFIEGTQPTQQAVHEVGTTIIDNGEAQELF

Consider `CCN1CCN(C(=O)NC(C(=O)N[C@H]2Cc3cc(C)cc(C(=O)O)c3OB2O)c2csc(N)n2)C(=O)C1=O` (stereo partly drawn) [Example 20, (3R)-3-(2-(2-aminothiazol-4-yl)-2-(4-ethyl-2,3-dioxopiperazine-1-carboxamido)acetamido)-2-hydroxy-6-methyl-3,4-dihydro-2H-benzo[e][1,2]oxaborinine-8-carboxylic acid], for which the EC50 on E. coli PBP3 is 30 to 500 µM; on E. coli PBP2 (fluorescence polarization competition binding with Bocillin-FL, read-out: E. coli K12 PBP2 Potency (EC50)) it was more than 500 µM; at E. coli PBP4 (fluorescence polarization competition binding with Bocillin-FL, read-out: E. coli K12 PBP4 Potency (EC50)), more than 500 µM; on E. coli PBP1a, less than 10 µM. For the same compound, the MIC in assay [1] and in [2] was 32 to 64 mg/L (≈ 58.8 to 118 µM) in each case.
Regarding `CCN1CCN(C(=O)NC(C(=O)N[C@H]2Cc3cccc(C(=O)O)c3OB2O)c2ccc(O)cn2)C(=O)C1=O` (stereo partly drawn) [Example 89, (3R)-3-(2-(4-ethyl-2,3-dioxopiperazine-1-carboxamido)-2-(5-hydroxypyridin-2-yl)acetamido)-2-hydroxy-3,4-dihydro-2H-benzo[e][1,2]oxaborinine-8-carboxylic acid], the EC50 was less than 30 µM on E. coli PBP3 (fluorescence polarization competition binding with Bocillin-FL, read-out: E. coli K12 PBP3 Potency); 30 to 500 µM on E. coli PBP2; 30 to 500 µM on E. coli PBP4. Also, the MIC in the assay with E. coli ATCC 25922 is 8 to 16 µg/mL; in the assay with E. coli AG100 it was 32 to 64 µg/mL; with E. coli 901C, 0.5 to 1 µg/mL; in the assay with E. coli AG100A, 2 to 4 µg/mL; in the assay on K. pneumoniae UMM it was 8 to 16 µg/mL; in [1], 8 to 16 mg/L (≈ 15.2 to 30.5 µM).

Values taken from patent publication US12173018B2, “Penicillin-binding protein inhibitors” (priority 2018, dated 2024).
